Experimental data as given in US20030060498A1, “5-arylsulfonyl indoles useful for treating disease” (priority 2001, published 2003).
Where a name gives a salt, the structure may show the parent alone. Read-outs that look alike come from different tables or passages of the source.

Tests used:
[1] = target: T1, cloned human 5-HT6 receptor (Homo sapiens, UniProt P50406); test: 5-HT6 receptor binding assay ([3H]-LSD radioligand, SPA beads)
T1 construct: host or cells: HeLa cells (G-418 selection); membrane preparation
Protocol: 5-HT6 Receport Binding Assay
Growth of Cells and Membrane Preparation:
Hela cells containing the cloned human 5-HT6 receptor were acquired from Dr. David R. Sibley's laboratory in National Institute of Health (see Sibley, D. R., J. Neurochemistry, 66, 47-56, 1996). Cells were grown in high glucose Dulbecco's modified Eagle's medium, supplemented with L-glutamine, 0.5% sodium pyruvate, 0.3% penicillin-streptomycin, 0.025% G-418 and 5% Gibco fetal bovine serum and then were harvested, when confluent, in cold phosphate buffered saline.
Harvested intact cells were washed once in cold phosphate-buffered saline. The cells were pelleted and resuspended in 100 ml of cold 50 mM Tris, 5 mM EDTA and 5 mM EGTA, pH 7.4. Homogenization was with a Vir Tishear generator, 4 cycles for 30 seconds each at setting 50. The homogenized cells were centrifuged at […] for 10 minutes and the supernatant was removed. The pellet was resuspended in 100 ml of the above buffer and rehomogenized for 2 cycles. The rehomogenized cells were then centrifuged at […] for 10 minutes and the supernatant was removed. The combined supernatant (200ml) was centrifuged at 23,000 RPM (80,000×g) for 1 hour in a Beckman Rotor (42.1 Ti). The membrane pellet was resuspended in […] of assay buffer containing HEPES 20 mM, MgCl2 10 mM, NaCl 150 mM, EDTA 1 mM, pH 7.4 and stored frozen in aliqouts at −70° C.
5-HT6 Receptor Binding Assay
The radioligand binding assay used [^3H]-lysergic acid diethylamide (LSD). The assay was carried out in Wallac 96-well sample plates by the addition of 11 μl of the test sample at the appropriate dilution (the assay employed 11 serial concentrations of samples run in duplicate), 11 μl of radioligand, and 178 μl of a washed mixture of WGA-coated SPA beads and membranes in binding buffer. The plates were shaken for about 5 minutes and then incubated at room temperature for 1 hour. The plates were then loaded into counting cassettes and counted in a Wallac MicroBeta Trilux scintillation counter.
Binding Constant (Ki) Determination
Eleven serial dilutions of test compounds were distributed to assay plates using the PE/Cetus Pro/Pette pipetter. These dilutions were, followed by radioligand and the bead-membrane mixture prepared as described above. The specifically bound cpm obtained were fit to a one-site binding model using GraphPad Prism ver. 3.0. Estimated IC50 values were converted to Ki values using the Cheng-Prusoff equation (Cheng, Y. C. et al., Biochem. Pharmacol., 22, 3099-108, 1973).

T1 sequence (P50406 whole entry): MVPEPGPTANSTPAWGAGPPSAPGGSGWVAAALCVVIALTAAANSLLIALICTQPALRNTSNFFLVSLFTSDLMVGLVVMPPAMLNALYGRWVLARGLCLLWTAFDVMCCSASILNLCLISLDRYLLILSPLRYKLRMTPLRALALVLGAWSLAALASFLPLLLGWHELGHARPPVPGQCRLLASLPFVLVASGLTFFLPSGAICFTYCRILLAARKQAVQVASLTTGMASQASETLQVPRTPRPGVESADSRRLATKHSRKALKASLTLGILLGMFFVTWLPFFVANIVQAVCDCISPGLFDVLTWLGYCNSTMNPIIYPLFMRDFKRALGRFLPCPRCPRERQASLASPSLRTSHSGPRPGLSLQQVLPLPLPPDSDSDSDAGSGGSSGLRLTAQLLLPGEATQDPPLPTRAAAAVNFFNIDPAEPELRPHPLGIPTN

Row | SMILES | Ki [1] [nM] | melting point | Ki ([1]; [3H]-LSD, membranes of Hela cells containing the cloned human 5-HT6 receptor, IC50 converted by Cheng-Prusoff, average, read-out: Ki) [nM]
1 | Cc1ccc(S(=O)(=O)c2ccc3[nH]c(C)c(CCN)c3c2)cc1.Cl [Example 9, 2-{2-methyl-5-[(4-methylphenyl)sulfonyl]-1H-indol-3-yl}ethanamine Hydrochloride] | 308 | > 275 °C | 
2 | Cc1c(CCN)c2cc(S(=O)(=O)c3ccc(C(F)(F)F)cc3)ccc2n1C.Cl [Example 13, 2-(1,2-dimethyl-5-{[4-(trifluoromethyl)phenyl]sulfonyl}-1H-indol-3-yl)ethanamine Hydrochloride] | 36 | > 280 °C | 
3 | CNCCc1cn(C)c2ccc(S(=O)(=O)c3ccc(C)cc3)cc12.Cl [Example 8, N-methyl-2-{1-methyl-5-[(4-methylphenyl)sulfonyl]-1H-indol-3-yl}ethanamine hydrochloride] | 7.6 | 275 to 277.6 °C | 
4 | Cc1c(CCN)c2cc(S(=O)(=O)c3cc(F)cc(F)c3)ccc2n1C.Cl [Example 19, 2-{5-[(3,5-difluorophenyl)sulfonyl]-1,2-dimethyl-1H-indol-3-yl}ethanamine Hydrochloride] | 5.6 | 288.6 to 290.5 °C | 
5 | Cc1[nH]c2ccc(S(=O)(=O)c3ccccc3)cc2c1CCN.Cl [Example 2, 2-[2-methyl-5-(phenylsulfonyl)-1H-indol-3-yl]ethanamine Hydrochloride] | 38 | > 280 °C | 
6 | Cc1[nH]c2ccc(S(=O)(=O)c3cc(F)cc(F)c3)cc2c1CCN.Cl [Example 18, 2-{5-[(3,5-difluorophenyl)sulfonyl]-2-methyl-1H-indol-3-yl}ethanamine Hydrochloride] | 66 | > 280 °C | 
7 | CNCCc1c(C)n(C)c2ccc(S(=O)(=O)c3ccc(C)cc3)cc12.Cl [Example 11, 2-{1,2-dimethyl-5-[(4-methylphenyl)sulfonyl]-1H-indol-3-yl}-N-methylethanamine Hydrochloride] | 15 | 259.7 to 262.3 °C | 
8 | Cc1c(CCN)c2cc(S(=O)(=O)c3cccc4ccccc34)ccc2n1C.Cl [Example 22, 2-[1,2-dimethyl-5-(1-naphthylsulfonyl)-1H-indol-3-yl]ethanamine Hydrochloride] | 3.1 | > 175 °C (dec.) | 
9 | CNCCc1c(C)n(C)c2ccc(S(=O)(=O)c3ccc(C(F)(F)F)cc3)cc12.Cl [Example 14, 2-(1,2-dimethyl-5-{[4-(trifluoromethyl)phenyl]sulfonyl}-1H-indol-3-yl)-N-methylethanamine Hydrochloride] | 18 | 189.1 to 193.7 °C | 
10 | Cc1c(CCN(C)C)c2cc(S(=O)(=O)c3ccccc3)ccc2n1C [Example 6, 2-[1,2-dimethyl-5-(phenylsulfonyl)-1H-indol-3-yl]-N,N-dimethylethanamine] | 1.8 | 169.6 to 171.9 °C | 
11 | Cc1ccc(S(=O)(=O)c2ccc3c(c2)c(CCN)c(C)n3C)cc1.Cl [Example 10, 2-{1,2-dimethyl-5-[(4-methylphenyl)sulfonyl]-1H-indol-3-yl}ethanamine Hydrochloride] | 22 | 168 to 172 °C | 
12 | Cc1[nH]c2ccc(S(=O)(=O)c3cccc4ccccc34)cc2c1CCN (as salt: hydrochloride) [Example 21, 2-[2-methyl-5-(1-naphthylsulfonyl)-1H-indol-3-yl]ethanamine Hydrochloride] |  | > 280 °C | 
13 | Cl.Cn1cc(CCN)c2cc(S(=O)(=O)c3ccccc3)ccc21 [Example 1, 2-[1-methyl-5-(phenylsulfonyl)-1H-indol-3-yl]ethanamine Hydrochloride] | 1.5 | 285.3 to 292 °C | 
14 | COc1cccc(S(=O)(=O)c2ccc3c(c2)c(CCN)c(C)n3C)c1.Cl [Example 16, 2-{5-[(3-methoxyphenyl)sulfonyl]-1,2-dimethyl-1H-indol-3-yl}ethanamine Hydrochloride] | 3.4 | 269.5 to 272.4 °C | 
15 | COc1cccc(S(=O)(=O)c2ccc3[nH]c(C)c(CCN)c3c2)c1.Cl [Example 15, 2-{5-[(3-methoxyphenyl)sulfonyl]-2-methyl-1H-indol-3-yl}ethanamine Hydrochloride] | 209 | 300 to 302 °C | 
16 | CNCCc1c(C)n(C)c2ccc(S(=O)(=O)c3ccccc3)cc12.Cl [Example 5, 2-[1,2-dimethyl-5-(phenylsulfonyl)-1H-indol-3-yl]-N-methylethanamine Hydrochloride] | 9 | 266.8 to 268.2 °C | 
17 | Cc1c(CCN)c2cc(S(=O)(=O)c3ccccc3)ccc2n1C.Cl [Example 4, 2-[1,2-dimethyl-5-(phenylsulfonyl)-1H-indol-3-yl]ethanamine Hydrochloride] | 4 | 155 to 158.3 °C | 
18 | CNCCc1c(C)n(C)c2ccc(S(=O)(=O)c3cccc4ccccc34)cc12.Cl |  | > 141 °C (dec.) | 
19 | Cc1[nH]c2ccc(S(=O)(=O)c3cccc4ccccc34)cc2c1CCN [Example 21, 2-[2-methyl-5-(1-naphthylsulfonyl)-1H-indol-3-yl]ethanamine Hydrochloride] | 0.9 |  | 
20 | Cc1ccc(S(=O)(=O)c2ccc3c(c2)c(CCN)cn3C)cc1.Cl [Example 7, 2-{1-methyl-5-[(4-methylphenyl)sulfonyl]-1H-indol-3-yl}ethanamine Hydrochloride] | 3.3 | 186.3 to 190.2 °C | 
21 | CNCCc1c(C)n(C)c2ccc(S(=O)(=O)c3cccc(OC)c3)cc12.Cl [Example 17, 2-{5-[(3-methoxyphenyl)sulfonyl]-1,2-dimethyl-1H-indol-3-yl}-N-methylethanamine Hydrochloride] | 10 | 192.4 to 196 °C | 
22 | CNCCc1c(C)[nH]c2ccc(S(=O)(=O)c3ccccc3)cc12 [Example 3, N-methyl-2-[2-methyl-5-(phenylsulfonyl)-1H-indol-3-yl]ethanamine] | 37 | 164.6 to 166 °C | 
23 | CNCCc1c(C)n(C)c2ccc(S(=O)(=O)c3cc(F)cc(F)c3)cc12.Cl [Example 20, 2-{5-[(3,5-difluorophenyl)sulfonyl]-1,2-dimethyl-1H-indol-3-yl}-N-methylethanamine Hydrochloride] | 4.6 | 253.5 to 257.8 °C | 
24 | Cc1[nH]c2ccc(S(=O)(=O)c3ccc(C(F)(F)F)cc3)cc2c1CCN.Cl [Example 12, 2-(2-methyl-5-{[4-(trifluoromethyl)phenyl]sulfonyl}-1H-indol-3-yl)ethanamine Hydrochloride] |  | > 275 °C | 146
